Source: ChEMBL document CHEMBL1159004, “Four new antibacterial sesterterpenes from a marine sponge of the genus Luffariella” (1992)

Tests used:
Type in all cases: functional
[1] = test system: Bacillus subtilis; experiment: Antibacterial activity against Bacillus subtilis ATCC […] by TLC bioautographic test
[2] = test system: Micrococcus luteus; experiment: Antibacterial activity against Micrococcus luteus ATCC 9341 by TLC bioautographic test
[3] = test system: Escherichia coli; experiment: Antibacterial activity against Escherichia coli ATCC 25922 by TLC bioautographic test

SMILES | Activity [1] [µg] | Activity [2] [µg] | Activity [3] [µg]
CC(=O)OC/C(=C\C[C@H]1OC(=O)C=C1CO)CC/C=C(\C)CCC1=C(C)CCCC1(C)C | 2 | 8 | 
CC1=C(CC/C(C)=C/CC/C(C=O)=C\C[C@H]2OC(=O)C=C2CO)C(C)(C)CCC1 | 4 | 4 | 
CC(=O)OC/C(=C\C[C@H]1OC(=O)CC1CO)CC/C=C(\C)CCC1=C(C)CCCC1(C)C (stereo partly drawn) | 11 | 3 | 
CC1=C(CC/C(C)=C/CC/C(=C/C[C@H]2OC(=O)CC2CO)CO)C(C)(C)CCC1 (stereo partly drawn) |  | 5 | 1
